Measured values published in US6737383B1, “Herbicidal oxadiazolidines” (priority 1999, dated 2004).

Tests used:
[1] = test system: galium; assay: Test E galium; format: in vivo, Galium aparine; conditions: Preemergence
[2] = test system: downy brome; assay: Test E downy brome; format: in vivo, Bromus tectorum; conditions: Preemergence
[3] = test system: winter barley; assay: Test E winter barley; format: in vivo, Hordeum vulgare; conditions: Postemergence
Procedure, shortened: (§1)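 Postemergence: 60:40 sandy loam/greenhouse potting mix, 1- to 4-leaf stage. Formulation: solvent plus surfactant. Assessment: visual comparison with untreated controls at ~21–28 days.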

[4] = test system: chickweed; assay: Test E chickweed; format: in vivo, Stellaria media; conditions: Preemergence
[5] = test system: sunflower; assay: Test E sunflower; format: in vivo, Helianthus annuus; conditions: Preemergence
[6] = test system: windgrass; assay: Test E windgrass; format: in vivo, Apera spica-venti; conditions: Preemergence
[7] = test system: chickweed; assay: Test E chickweed; format: in vivo, Stellaria media; conditions: Postemergence
Procedure: (§2) Compounds evaluated in this test were formulated in a non-phytotoxic solvent mixture which included a surfactant and applied to plants that were in the 1- to 4-leaf stage (postemergence application). A mixture of sandy loam soil and greenhouse potting mix in a 60:40 ratio was used for the postemergence test.
(§3) Plantings of these crops and weed species were adjusted to produce plants of appropriate size for the postemergence test. All plant species were grown using normal greenhouse practices. Crop and weed species include annual bluegrass (Poa annua), blackgrass (Alopecurus myosuroides), black nightshade (Solanum nigra), chickweed (Stellaria media), common poppy (Papaver rhoeas), deadnettle (Lamium amplexicaule), downy brome (Bromus tectorum), field violet (Viola arvensis), galium (Galium aparine), green foxtail (Setaria viridis), Italian ryegrass (Lolium multiflorum), jointed goatgrass (Aegilops cylindrica), kochia (Kochia scoparia), lambsquarters (Chenopodium album), littleseed canarygrass (Phalaris minor), rape (Brassica napus), redroot pigweed (Amaranthus retroflexus), Russian thistle (Salsola kali), scentless chamomile (Matricaria inodora), spring barley (Hordeum vulgare), sugar beet (Beta vulgaris), sunflower (Helianthus annuus), ivyleaf speedwell (Veronica hederaefolia), spring wheat (Triticum aestivum), winter wheat (Triticum aestivum), wild buckwheat (Polygonum convolvulus), wild mustard (Sinapis arvensis), wild oat (Avena fatua), windgrass (Apera spica-venti) and winter barley (Hordeum vulgare).
(§4) Treated plants and untreated controls were maintained in a greenhouse for approximately 21 to 28 days, after which all treated plants were compared to untreated controls and visually evaluated. […] A dash response (-) means no test result.

[8] = test system: deadnettle; assay: Test E deadnettle; format: in vivo, Lamium amplexicaule; conditions: Postemergence
Procedure: as §2, §3, §4

[9] = test system: sunflower; assay: Test E sunflower; format: in vivo, Helianthus annuus; conditions: Postemergence
Procedure: as §3, with “Plantings of these crops and weed species were adjusted to produce plants of appropriate size for the postemergence test.” left out
as §4

[10] = test system: Italian ryegrass; assay: Test E Italian ryegrass; format: in vivo, Lolium multiflorum; conditions: Postemergence
Procedure, shortened: as §1

[11] = test system: lambsquarters; assay: Test E lambsquarters; format: in vivo, Chenopodium album; conditions: Preemergence
[12] = test system: ivyleaf speedwell; assay: Test E postemergence ivyleaf speedwell; format: in vivo, Veronica hederaefolia
Procedure: as §2, §3, §4

[13] = test system: black nightshade; assay: Test E black nightshade; format: in vivo, Solanum nigra; conditions: Postemergence
Procedure, shortened: as §1

[14] = test system: Russian thistle; assay: Test E Russian thistle; format: in vivo, Salsola kali; conditions: Postemergence
Procedure: (§5) […] A mixture of sandy loam soil and greenhouse potting mix in a 60:40 ratio was used for the postemergence test.
as §3, §4

[15] = test system: galium; assay: Test E galium; format: in vivo, Galium aparine; conditions: Postemergence
Procedure: as §5, §3, §4

[16] = test system: scentless chamomile; assay: Test E scentless chamomile; format: in vivo, Matricaria inodora; conditions: Postemergence
Procedure: as §2, §3, §4

[17] = test system: annual bluegrass; assay: Test E annual bluegrass; format: in vivo, Poa annua; conditions: Preemergence
[18] = test system: deadnettle; assay: Test E deadnettle; format: in vivo, Lamium amplexicaule; conditions: Preemergence
[19] = test system: downy brome; assay: Test E downy brome; format: in vivo, Bromus tectorum; conditions: Postemergence; for Plant response rating, Downy brome: 0 to 100 scale
Procedure, shortened: as §1

[20] = test system: kochia; assay: Test E kochia; format: in vivo, Kochia scoparia; conditions: Preemergence
[21] = test system: green foxtail; assay: Test E green foxtail; format: in vivo, Setaria viridis; conditions: Postemergence
Procedure: as §2, §3, §4

[22] = test system: annual bluegrass; assay: Test E annual bluegrass; format: in vivo, Poa annua; conditions: Postemergence
Procedure, shortened: as §1

[23] = Rate 62 g/ha, 0 to 100 scale, 0 no effect, 100 complete control
[24] = Rate 125 g/ha, 0 to 100 scale (0 no effect, 100 complete control)
[25] = Rate 250 g/ha, 0 to 100 scale (0 no effect, 100 complete control)

CCn1c(=O)on(C(=O)N(c2ccc(Cl)cc2)C(C)C)c1=O [Compound 108]
75: Plant response rating, Green foxtail [21, 25]
5: Plant response rating, I. Ryegrass ([10]; Rate 125 g/ha, 0 to 100 scale)
15: Plant response rating, Barley (winter) [3, 25] | Plant response rating, Green foxtail ([21]; Rate 125 g/ha, 0 to 100 scale) | Plant response rating, Annual bluegras ([22]; Rate 125 g/ha, 0 to 100 scale)
10: Plant response rating, Barley (winter) ([3]; Rate 62 g/ha, 0 to 100 scale) | Plant response rating, Barley (winter) ([3]; Rate 125 g/ha, 0 to 100 scale) | Plant response rating, Sunflower ([5]; Rate 250 g/ha, 0 to 100 scale) | Plant response rating, Chickweed ([7]; Rate 62 g/ha, 0 to 100 scale) | Plant response rating, Deadnettle ([8]; Rate 62 g/ha, 0 to 100 scale) | Plant response rating, Veronica hedera ([12]; Rate 125 g/ha, 0 to 100 scale) | Plant response rating, Galium ([15]; Rate 125 g/ha, 0 to 100 scale) | Plant response rating, Scentless chamo ([16]; Rate 62 g/ha, 0 to 100 scale) | Plant response rating, Scentless chamo [16, 25] | Plant response rating, Deadnettle [18, 23] | Plant response rating, Deadnettle [18, 24] | Plant response rating, Green foxtail ([21]; Rate 62 g/ha, 0 to 100 scale)
90: Plant response rating, Lambsquarters ([11]; Rate 250 g/ha, 0 to 100 scale)
80: Plant response rating, Lambsquarters [11, 23]
35: Plant response rating, Sunflower [9, 25]
40: Plant response rating, Chickweed [4, 24] | Plant response rating, I. Ryegrass [10, 25] | Plant response rating, Veronica hedera [12, 25] | Plant response rating, Deadnettle ([18]; Rate 250 g/ha, 0 to 100 scale) | Plant response rating, Kochia ([20]; Rate 250 g/ha, 0 to 100 scale)
0: Plant response rating, Sunflower [5, 23] | Plant response rating, Sunflower [5, 24] | Plant response rating, Chickweed ([7]; Rate 125 g/ha, 0 to 100 scale) | Plant response rating, Chickweed [7, 25] | Plant response rating, Veronica hedera ([12]; Rate 62 g/ha, 0 to 100 scale) | Plant response rating, Russian thistle ([14]; Rate 62 g/ha, 0 to 100 scale) | Plant response rating, Russian thistle ([14]; Rate 125 g/ha, 0 to 100 scale) | Plant response rating, Russian thistle [14, 25] | Plant response rating, Galium ([15]; Rate 62 g/ha, 0 to 100 scale) | Plant response rating, Scentless chamo ([16]; Rate 125 g/ha, 0 to 100 scale) | Plant response rating, Downy brome ([19]; Rate 62 g/ha) | Plant response rating, Downy brome ([19]; Rate 125 g/ha) | Plant response rating, Downy brortie [19, 25] | Plant response rating, Annual bluegras ([22]; Rate 62 g/ha, 0 to 100 scale)
95: Plant response rating, Galium [1, 23] | Plant response rating, Galium ([1]; Rate 250 g/ha, 0 to 100 scale)
70: Plant response rating, Downy brome ([2]; Rate 250 g/ha, 0 to 100 scale)
20: Plant response rating, Deadnettle ([8]; Rate 125 g/ha, 0 to 100 scale) | Plant response rating, Sunflower ([9]; Rate 62 g/ha, 0 to 100 scale) | Plant response rating, I. Ryegrass ([10]; Rate 62 g/ha, 0 to 100 scale) | Plant response rating, Blk nightshade ([13]; Rate 62 g/ha, 0 to 100 scale) | Plant response rating, Annual bluegras [17, 23]
100: Plant response rating, Windgrass [6, 23] | Plant response rating, Windgrass [6, 24] | Plant response rating, Lambsquarters [11, 24]
60: Plant response rating, Annual bluegras [17, 24] | Plant response rating, Annual bluegras ([17]; Rate 250 g/ha, 0 to 100 scale)
30: Plant response rating, Downy brome [2, 23] | Plant response rating, Downy brome [2, 24] | Plant response rating, Chickweed [4, 23] | Plant response rating, Chickweed ([4]; Rate 250 g/ha, 0 to 100 scale) | Plant response rating, Deadnettle [8, 25] | Plant response rating, Sunflower ([9]; Rate 125 g/ha, 0 to 100 scale) | Plant response rating, Blk nightshade ([13]; Rate 125 g/ha, 0 to 100 scale)
50: Plant response rating, Galium [1, 24] | Plant response rating, Blk nightshade [13, 25] | Plant response rating, Galium [15, 25] | Plant response rating, Kochia [20, 23] | Plant response rating, Kochia [20, 24] | Plant response rating, Annual bluegras [22, 25]
